In article PMC7156458, “Synthetic biology based construction of biological activity-related library of fungal decalin-containing diterpenoid pyrones” (Nature Communications, 2020):

Molecular target: Aβ42 (Homo sapiens, UniProt P05067)
Assay: Th-T (thioflavin-T) assay of Aβ42 aggregation
Assay type: biochemical
Details: for Th-T fluorescence, mean of three wells: Aβ42 aggregation time course

Aβ42, sequence (P05067 672-713): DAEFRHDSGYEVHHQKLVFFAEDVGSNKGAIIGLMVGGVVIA

`C=C1CCC2C(C)(CCC=C(C)C)C(O)CCC2(C)C1Cc1c(OC)oc(CO)c(C(=O)OC)c1=O` (centres unmarked) [Compound 13] was tested, and the “first Th-T assay result” value (Aβ42 (10 μM) ± DPPs (20 μM), room temperature) was “clearly delayed nuclei formation of Aβ42”, the “Th-T fluorescence, mean of three wells” value (reading M117) was 1.0387 and the “Th-T fluorescence, mean of three wells” value (reading M118) was 1.037. For the same molecule, the “Th-T fluorescence, mean of three wells” value (reading M119) was 1.04, the “Th-T fluorescence, mean of three wells” value (reading M120) was 1.034 and the “Th-T fluorescence, mean of three wells” value (reading M121) was 1.036. The “Th-T fluorescence, mean of three wells” value (reading M122) was 1.039, the “Th-T fluorescence, mean of three wells” value (reading M123) was 1.034 and the “Th-T fluorescence, mean of three wells” value (reading M124) was 1.036. The “Th-T fluorescence, mean of three wells” value (reading M125) was 1.037, the “Th-T fluorescence, mean of three wells” value (reading M126) was 1.037 and the “Th-T fluorescence, mean of three wells” value (reading M127) was 1.0394. For the same molecule, the “Th-T fluorescence, mean of three wells” value (reading M128) was 1.038, the “Th-T fluorescence, mean of three wells” value (reading M129) was 1.038 and the “Th-T fluorescence, mean of three wells” value (reading M130) was 1.033. The “nucleation phase of Aβ42 delayed until” value (Th-T fluorescence of Aβ42 alone began to increase after 4 h) was 6 h, the “Th-T fluorescence, mean of three wells (Fig. 7a)” value (“Th-T fluorescence … (Fig. 7a)” for short) (column suffix _10, measurement M19) was 0.2324 and the “Th-T fluorescence … (Fig. 7a)” value (column suffix _10, measurement M20) was 0.2323. The “Th-T fluorescence … (Fig. 7a)” value (column suffix _10, measurement M21) was 0.2394, the “Th-T fluorescence … (Fig. 7a)” value (column suffix _10, measurement M22) was 0.2441 and the “Th-T fluorescence … (Fig. 7a)” value (column suffix _10, measurement M23) was 0.249. For the same molecule, the “Th-T fluorescence … (Fig. 7a)” value (column suffix _10, measurement M24) was 0.2631, the “Th-T fluorescence … (Fig. 7a)” value (column suffix _10, measurement M25) was 0.2779 and the “Th-T fluorescence … (Fig. 7a)” value (column suffix _10, measurement M26) was 0.3045. For the same molecule, the “Th-T fluorescence … (Fig. 7a)” value (column suffix _10, measurement M27) was 0.3354, the “Th-T fluorescence … (Fig. 7a)” value (column suffix _10, measurement M28) was 0.3683 and the “Th-T fluorescence … (Fig. 7a)” value (column suffix _10, measurement M29) was 0.4093. For the same molecule, the “Th-T fluorescence … (Fig. 7a)” value (column suffix _10, measurement M30) was 0.4628, the “Th-T assay signal, mean of three wells (Fig. 7a)” value (“Th-T assay signal, mean” below) (column suffix _10, reading M1) was 0.2437 and the “Th-T assay signal, mean” value (column suffix _10, reading M2) was 0.2496. The “Th-T assay signal, mean” value (column suffix _10, reading M3) was 0.25, the “Th-T assay signal, mean” value (column suffix _10, reading M4) was 0.2515 and the “Th-T assay signal, mean” value (column suffix _10, reading M5) was 0.2448. For the same molecule, the “Th-T assay signal, mean” value (column suffix _10, reading M6) was 0.2438, the “Th-T assay signal, mean” value (column suffix _10, reading M7) was 0.2403 and the “Th-T assay signal, mean” value (column suffix _10, reading M8) was 0.2367. The “Th-T assay signal, mean” value (column suffix _10, reading M9) was 0.231, the “Th-T assay signal, mean” value (column suffix _10, reading M10) was 0.233 and the “Th-T assay signal, mean” value (column suffix _10, reading M11) was 0.2291. For the same molecule, the “Th-T assay signal, mean” value (column suffix _10, reading M12) was 0.2292, the “Th-T assay signal, mean” value (column suffix _10, reading M13) was 0.2301 and the “Th-T assay signal, mean” value (column suffix _10, reading M14) was 0.2289. For the same molecule, the “Th-T assay signal, mean” value (column suffix _10, reading M15) was 0.2274, the “Th-T assay signal, mean” value (column suffix _10, reading M16) was 0.2305 and the “Th-T assay signal, mean” value (column suffix _10, reading M17) was 0.2352. For the same molecule, the “Th-T assay signal, mean” value (column suffix _10, reading M18) was 0.231, the “Fig. 7a Th-T reading, mean of three wells” value (shortened to “Fig. 7a Th-T reading, mean”) (column suffix _10, reading M85) was 1.544 and the “Fig. 7a Th-T reading, mean” value (column suffix _10, reading M86) was 1.5365. The “Fig. 7a Th-T reading, mean” value (column suffix _10, reading M87) was 1.543, the “Fig. 7a Th-T reading, mean” value (column suffix _10, reading M88) was 1.544 and the “Fig. 7a Th-T reading, mean” value (column suffix _10, reading M89) was 1.563. The “Fig. 7a Th-T reading, mean” value (column suffix _10, reading M90) was 1.554, the “Fig. 7a Th-T reading, mean” value (column suffix _10, reading M91) was 1.5515 and the “Fig. 7a Th-T reading, mean” value (column suffix _10, reading M92) was 1.553. For the same molecule, the “Fig. 7a Th-T reading, mean” value (column suffix _10, reading M93) was 1.554, the “Fig. 7a Th-T reading, mean” value (column suffix _10, reading M94) was 1.561 and the “Fig. 7a Th-T reading, mean” value (column suffix _10, reading M95) was 1.563. The “Fig. 7a Th-T reading, mean” value (column suffix _10, reading M96) was 1.547, the “Fig. 7a Th-T reading, mean” value (column suffix _10, reading M97) was 1.551 and the “Fig. 7a Th-T reading, mean” value (column suffix _10, reading M98) was 1.554. The “Fig. 7a Th-T reading, mean” value (column suffix _10, reading M99) was 1.551, the “Fig. 7a Th-T reading, mean” value (column suffix _10, reading M100) was 1.555 and the “Fig. 7a Th-T reading, mean” value (column suffix _10, reading M101) was 1.545. For the same molecule, the “Fig. 7a Th-T reading, mean” value (column suffix _10, reading M102) was 1.552, the “Fig. 7a Th-T reading, mean” value (column suffix _10, reading M103) was 1.542 and the “Fig. 7a Th-T reading, mean” value (column suffix _10, reading M104) was 1.5457. The “Fig. 7a Th-T reading, mean” value (column suffix _10, reading M105) was 1.553, the “Fig. 7a Th-T reading, mean” value (column suffix _10, reading M106) was 1.551 and the “Th-T fluorescence … (Fig. 7a)” value (column suffix _20, measurement M19) was 0.1811. The “Th-T fluorescence … (Fig. 7a)” value (column suffix _20, measurement M20) was 0.1836, the “Th-T fluorescence … (Fig. 7a)” value (column suffix _20, measurement M21) was 0.1846 and the “Th-T fluorescence … (Fig. 7a)” value (column suffix _20, measurement M22) was 0.1853. The “Th-T fluorescence … (Fig. 7a)” value (column suffix _20, measurement M23) was 0.1827, the “Th-T fluorescence … (Fig. 7a)” value (column suffix _20, measurement M24) was 0.1835 and the “Th-T fluorescence … (Fig. 7a)” value (column suffix _20, measurement M25) was 0.1855. The “Th-T fluorescence … (Fig. 7a)” value (column suffix _20, measurement M26) was 0.1899, the “Th-T fluorescence … (Fig. 7a)” value (column suffix _20, measurement M27) was 0.1923 and the “Th-T fluorescence … (Fig. 7a)” value (column suffix _20, measurement M28) was 0.1912. The “Th-T fluorescence … (Fig. 7a)” value (column suffix _20, measurement M29) was 0.1931, the “Th-T assay signal, mean” value (column suffix _20, reading M1) was 0.2486 and the “Th-T assay signal, mean” value (column suffix _20, reading M2) was 0.2414. For the same molecule, the “Th-T assay signal, mean” value (column suffix _20, reading M3) was 0.2279, the “Th-T assay signal, mean” value (column suffix _20, reading M4) was 0.2173 and the “Th-T assay signal, mean” value (column suffix _20, reading M5) was 0.206. The “Th-T assay signal, mean” value (column suffix _20, reading M6) was 0.2044, the “Th-T assay signal, mean” value (column suffix _20, reading M7) was 0.2009 and the “Th-T assay signal, mean” value (column suffix _20, reading M8) was 0.1963. For the same molecule, the “Th-T assay signal, mean” value (column suffix _20, reading M9) was 0.1897, the “Th-T assay signal, mean” value (column suffix _20, reading M10) was 0.1909 and the “Th-T assay signal, mean” value (column suffix _20, reading M11) was 0.1894. The “Th-T assay signal, mean” value (column suffix _20, reading M12) was 0.1902, the “Th-T assay signal, mean” value (column suffix _20, reading M13) was 0.1854 and the “Th-T assay signal, mean” value (column suffix _20, reading M14) was 0.184. For the same molecule, the “Th-T assay signal, mean” value (column suffix _20, reading M15) was 0.1861, the “Th-T assay signal, mean” value (column suffix _20, reading M16) was 0.1835 and the “Th-T assay signal, mean” value (column suffix _20, reading M17) was 0.1852. The “Th-T assay signal, mean” value (column suffix _20, reading M18) was 0.1827, the “Fig. 7a Th-T reading, mean” value (column suffix _20, reading M85) was 1.042 and the “Fig. 7a Th-T reading, mean” value (column suffix _20, reading M86) was 1.037. For the same molecule, the “Fig. 7a Th-T reading, mean” value (column suffix _20, reading M87) was 1.045, the “Fig. 7a Th-T reading, mean” value (column suffix _20, reading M88) was 1.0511 and the “Fig. 7a Th-T reading, mean” value (column suffix _20, reading M89) was 1.059. The “Fig. 7a Th-T reading, mean” value (column suffix _20, reading M90) was 1.054, the “Fig. 7a Th-T reading, mean” value (column suffix _20, reading M91) was 1.0453 and the “Fig. 7a Th-T reading, mean” value (column suffix _20, reading M92) was 1.043. The “Fig. 7a Th-T reading, mean” value (column suffix _20, reading M93) was 1.047, the “Fig. 7a Th-T reading, mean” value (column suffix _20, reading M94) was 1.054 and the “Fig. 7a Th-T reading, mean” value (column suffix _20, reading M95) was 1.054. For the same molecule, the “Fig. 7a Th-T reading, mean” value (column suffix _20, reading M96) was 1.04, the “Fig. 7a Th-T reading, mean” value (column suffix _20, reading M97) was 1.041 and the “Fig. 7a Th-T reading, mean” value (column suffix _20, reading M98) was 1.046. The “Fig. 7a Th-T reading, mean” value (column suffix _20, reading M99) was 1.051 and the “Fig. 7a Th-T reading, mean” value (column suffix _20, reading M100) was 1.05.
